Converted amounts (≈) assume the structure as drawn. Read-outs that look alike come from different tables or passages of the source. Bounds are passed on as bounds.

In experiment [1] the test system is Listeria innocua ATCC 33090. The experiment in a line: MIC/MBC micro-dilution. It counts as cell-based. Background: In broth dilution the organism is exposed to a series of concentrations in liquid medium.
In experiment [2] the test system is Listeria innocua ATCC 33090. Nature of the experiment: Antimicrobial test, 5 min treatment, plate count. It counts as cell-based. Conditions: 0.1%. How it is done:
Since the solutions contained 10% of ethanol, ethanol (10%) along with water were used as references. The bacteria and the solutions were vortexed and incubated at ambient temperature ([…]) for 5 min before immediately being plated (diluted when needed) on TSA to determine the survival of the bacteria. After 24 h at 37° C., colonies on the plates were counted.
Statistical analysis: Data on antimicrobial test were subjected to statistical analysis using SAS Version 8.2 (SAS Institute, Cary, N.C.). The Duncan's multiple range test was used for the treatment effects.

Setting [3] is: Listeria innocua, ATCC33090, 24 h.

Broadly, the MBC is the lowest tested concentration that kills the bacteria rather than only halting them. One may read the MIC as the smallest concentration in the dilution series that meets the test's criterion for growth inhibition. In experiment [1] (Listeria innocua, ATCC33090), `Cc1ccc(C(C)C)cc1O` [Carvacrol] came in with an MBC of 454 µg/mL (≈ 3.03 mM). The compound further gave an MIC in experiment [1] (setting [3]) of 233 to 454 µg/mL (≈ 1.55 to 3.03 mM).
Regarding `CCCCCCCC/C=C\CCCCCCCC(=O)O` [OLA, oleic acid], in experiment [2], the “Reduction of population of L. innocua” value is 3.5 logs CFU/mL.
On to `Oc1ccccc1` [Phenol, phenol], for which the “Effect on population of L. innocua” value in experiment [2] is given as “no significant effect”. This compound also returned an MBC in experiment [1] (Listeria innocua, ATCC33090) of more than 454 µg/mL. In addition, the MIC in experiment [1] (setting [3]) is more than 454 µg/mL.
In the case of `Cc1ccc(C(C)C)c(O)c1` [Thymol], the minimal inhibitory concentration (MIC) in experiment [1] (ATCC33090, Listeria innocua ATCC 33090, 24 h at 37° C., read-out: MIC) was 233 to 454 µg/mL (≈ 1.55 to 3.03 mM). Besides, the MBC in experiment [1] (ATCC33090, Listeria innocua ATCC 33090, read-out: MBC) was more than 454 µg/mL.

Values taken from US10144694B2, “Methods for preparing phenolic branched chain alkyl fatty acids or esters thereof and methods for killing microorganisms” (The United States of America, as Represented by the …, priority 2016, dated 2018).
